# Measurements published in article PMC10893631, “Receptor-based pharmacophore modeling, molecular docking, synthesis and biological evaluation of novel VEGFR-2, FGFR-1, and BRAF multi-kinase inhibitors” (BMC Chemistry, 2024).
# Legend:
# Test in all cases: NCI SRB growth inhibition (single dose 10 µM / five-dose)
# Type in all cases: cell-based, human
# [1] = test system: 786–0; conditions: Homo sapiens; for inhibition at 10 µM: 786–0 (Renal cancer), read-out: GI%
# Summary of the method: (§1)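 Cells plated at 5000–40,000 cells/well by doubling time; time-zero plates TCA-fixed after 24 h. Compounds (DMSO stocks) added at five 10-fold or ½-log concentrations plus control. Adherent cells TCA-fixed, stained with 0.4% SRB in 1% acetic acid; percentage growth from Tz, C and Ti absorbances.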
# [2] = test system: A549/ATCC; conditions: Homo sapiens; for inhibition at 10 µM: A549/ATCC (Non-small cell lung cancer), read-out: GI%
# Summary of the method: as §1
# [3] = test system: ACHN; conditions: Homo sapiens; for inhibition at 10 µM: ACHN (Renal cancer), read-out: GI%
# Summary of the method: as §1
# [4] = test system: BT-549; conditions: Homo sapiens; for inhibition at 10 µM: BT-549 (Breast cancer), read-out: GI%
# Summary of the method: as §1
# [5] = test system: CAKI-1; conditions: Homo sapiens; for inhibition at 10 µM: CAKI-1 (Renal cancer), read-out: GI%
# Summary of the method: as §1
# [6] = test system: CCRF-CEM; conditions: Homo sapiens; for inhibition at 10 µM: CCRF-CEM (Leukemia), read-out: GI%
# Summary of the method: as §1
# [7] = test system: EKVX; conditions: Homo sapiens; for inhibition at 10 µM: EKVX (Non-small cell lung cancer), read-out: GI%
# Summary of the method: as §1
# [8] = test system: HCC-2998; conditions: Homo sapiens; for inhibition at 10 µM: HCC-2998 (Colon cancer), read-out: GI%
# Summary of the method: as §1
# [9] = test system: HOP-92; conditions: Homo sapiens; for inhibition at 10 µM: HOP-92 (Non-small cell lung cancer), read-out: GI%
# Summary of the method: as §1
# [10] = test system: HS 578 T; conditions: Homo sapiens; for inhibition at 10 µM: HS 578 T (Breast cancer), read-out: GI%
# Summary of the method: as §1
# [11] = test system: HT29; conditions: Homo sapiens, HT-29; for inhibition at 10 µM: HT29 (Colon cancer), read-out: GI%
# Summary of the method: as §1
# [12] = test system: M14; conditions: Homo sapiens; for inhibition at 10 µM: M14 (Melanoma), read-out: GI%
# Summary of the method: as §1
# [13] = test system: MALME-3 M; conditions: Homo sapiens; for inhibition at 10 µM: MALME-3 M (Melanoma), read-out: GI%
# Summary of the method: as §1
# [14] = test system: MDA-MB-231/ATCC; conditions: Homo sapiens; for inhibition at 10 µM: MDA-MB-231/ATCC (Breast cancer), read-out: GI%
# Summary of the method: as §1
# [15] = test system: MOLT-4; conditions: Homo sapiens; for inhibition at 10 µM: MOLT-4 (Leukemia), read-out: GI%
# Summary of the method: as §1
# [16] = test system: NCI-H226; conditions: Homo sapiens; for inhibition at 10 µM: NCI-H226 (Non-small cell lung cancer), read-out: GI%
# Summary of the method: as §1
# [17] = test system: NCI/ADR-RES; conditions: Homo sapiens; NCI/ADR-RES (Ovarian cancer), 10 µM; read-out: GI%
# Summary of the method: as §1
# [18] = test system: OVCAR-5; conditions: Homo sapiens; for inhibition at 10 µM: OVCAR-5 (Ovarian cancer), read-out: GI%
# Summary of the method: as §1
# [19] = test system: RXF 393; conditions: Homo sapiens; for inhibition at 10 µM: RXF 393 (Renal cancer), read-out: GI%
# Summary of the method: as §1
# [20] = test system: SF-295; conditions: Homo sapiens; for inhibition at 10 µM: SF-295 (CNS cancer), read-out: GI%
# Summary of the method: as §1
# [21] = test system: SK-MEL-28; conditions: Homo sapiens; for inhibition at 10 µM: SK-MEL-28 (Melanoma), read-out: GI%
# Summary of the method: as §1
# [22] = test system: SK-MEL-2; conditions: Homo sapiens; for inhibition at 10 µM: SK-MEL-2 (Melanoma), read-out: GI%
# Summary of the method: as §1
# [23] = test system: SK-MEL-5; conditions: Homo sapiens; for inhibition at 10 µM: SK-MEL-5 (Melanoma), read-out: GI%
# Summary of the method: as §1
# [24] = test system: SR; conditions: Homo sapiens; for inhibition at 10 µM: SR (Leukemia), read-out: GI%
# Summary of the method: as §1
# [25] = test system: TK-10; conditions: Homo sapiens; for inhibition at 10 µM: TK-10 (Renal cancer), read-out: GI%
# Summary of the method: as §1
# [26] = test system: UACC-257; conditions: Homo sapiens; for inhibition at 10 µM: UACC-257 (Melanoma), read-out: GI%
# Summary of the method: as §1
smiles,measurement,setting,value
"COc1ccc(C=NNC(=O)c2ccc3[nH]c(-c4ccc(Cl)cc4)nc3c2)cc1O [8s, 2-(4-Chlorophenyl)-N'-(3-hydroxy-4-methoxybenzylidene)-1H-benzo[d]imidazole-5-carbohydrazide]",inhibition at 10 µM,[1],52%
same,inhibition at 10 µM,[2],7.66%
same,inhibition at 10 µM,[3],< 5%
same,inhibition at 10 µM,[4],42.9%
same,inhibition at 10 µM,[5],18.5%
same,inhibition at 10 µM,[6],> 100%
same,inhibition at 10 µM,[7],37%
same,inhibition at 10 µM,[8],86.8%
same,inhibition at 10 µM,[9],< 5%
same,inhibition at 10 µM,[10],86.9%
same,inhibition at 10 µM,[11],> 100%
same,inhibition at 10 µM,[12],42.1%
same,inhibition at 10 µM,[13],> 100%
same,inhibition at 10 µM,[14],75.1%
same,inhibition at 10 µM,[15],83.7%
same,inhibition at 10 µM,[16],37.6%
same,inhibition at 10 µM,[17],< 5%
same,inhibition at 10 µM,[18],< 5%
same,inhibition at 10 µM,[19],69.1%
same,inhibition at 10 µM,[20],85%
same,inhibition at 10 µM,[21],70.8%
same,inhibition at 10 µM,[22],76.1%
same,inhibition at 10 µM,[23],53.3%
same,inhibition at 10 µM,[24],77.2%
same,inhibition at 10 µM,[25],< 5%
same,inhibition at 10 µM,[26],24.6%
"COc1ccc(OC)c(C=NNC(=O)c2ccc3[nH]c(-c4ccc(Cl)cc4)nc3c2)c1 [8t, 2-(4-Chlorophenyl)-N'-(2,5-dimethoxybenzylidene)-1H-benzo[d]imidazole-5-carbohydrazide]",inhibition at 10 µM,[1],26.6%
same,inhibition at 10 µM,[2],8.76%
same,inhibition at 10 µM,[3],53.1%
same,inhibition at 10 µM,[4],25.7%
same,inhibition at 10 µM,[5],38.4%
same,inhibition at 10 µM,[6],56.1%
same,inhibition at 10 µM,[7],42.5%
same,inhibition at 10 µM,[8],14.6%
same,inhibition at 10 µM,[9],36.6%
same,inhibition at 10 µM,[10],48.8%
same,inhibition at 10 µM,[11],20.3%
same,inhibition at 10 µM,[12],30.9%
same,inhibition at 10 µM,[13],18.4%
same,inhibition at 10 µM,[14],89.7%
same,inhibition at 10 µM,[15],58.9%
same,inhibition at 10 µM,[16],35.7%
same,inhibition at 10 µM,[17],11.2%
same,inhibition at 10 µM,[18],< 5%
same,inhibition at 10 µM,[19],96.5%
same,inhibition at 10 µM,[20],51.9%
same,inhibition at 10 µM,[21],14.6%
same,inhibition at 10 µM,[22],< 5%
same,inhibition at 10 µM,[23],68.8%
same,inhibition at 10 µM,[24],31.4%
same,inhibition at 10 µM,[25],10.9%
same,inhibition at 10 µM,[26],< 5%
"COc1cc(C=NNC(=O)c2ccc3[nH]c(-c4ccc(Cl)cc4)nc3c2)cc(OC)c1OC [8u, 2-(4-Chlorophenyl)-N'-(3,4,5-trimethoxybenzylidene)-1H-benzo[d]imidazole-5-carbohydrazide]",inhibition at 10 µM,[1],> 100%
same,GI50,"[1]; 786–0, Renal cancer, five-dose",4.88 µM
same,inhibition at 10 µM,[2],70.8%
same,GI50,"[2]; A549/ATCC, Non-small cell lung cancer, five-dose",7.55 µM
same,inhibition at 10 µM,[3],69.9%
same,GI50,"[3]; ACHN, Renal cancer, five-dose",7.93 µM
same,inhibition at 10 µM,[4],> 100%
same,GI50,"[4]; BT-549, Breast cancer, five-dose",2.69 µM
same,inhibition at 10 µM,[5],97.1%
same,GI50,"[5]; CAKI-1, Renal cancer, five-dose",11.2 µM
same,inhibition at 10 µM,[6],> 100%
same,GI50,"[6]; CCRF-CEM, Leukemia, five-dose",6.27 µM
same,inhibition at 10 µM,[7],90.8%
same,GI50,"[7]; EKVX, Non-small cell lung cancer, five-dose",14.8 µM
same,inhibition at 10 µM,[8],> 100%
same,GI50,"[8]; HCC-2998, Colon cancer, five-dose",11.1 µM
same,inhibition at 10 µM,[9],> 100%
same,GI50,"[9]; HOP-92, Non-small cell lung cancer, five-dose",5.95 µM
same,inhibition at 10 µM,[10],> 100%
same,GI50,"[10]; HS 578 T, Breast cancer, five-dose",2.58 µM
same,inhibition at 10 µM,[11],> 100%
same,GI50,"[11]; HT29, Colon cancer, five-dose",2.98 µM
same,inhibition at 10 µM,[12],> 100%
same,GI50,"[12]; M14, Melanoma, five-dose",3.77 µM
same,inhibition at 10 µM,[13],> 100%
same,GI50,"[13]; MALME-3 M, Melanoma, five-dose",1.12 µM
same,inhibition at 10 µM,[14],> 100%
same,GI50,"[14]; MDA-MB-231/ATCC, Breast cancer, five-dose",3.39 µM
same,inhibition at 10 µM,[15],96%
same,GI50,"[15]; MOLT-4, Leukemia, five-dose",3.58 µM
same,inhibition at 10 µM,[16],> 100%
same,GI50,"[16]; NCI-H226, Non-small cell lung cancer, five-dose",1.31 µM
same,inhibition at 10 µM,[17],24.3%
same,inhibition at 10 µM,[18],37.4%
same,GI50,"[18]; OVCAR-5, Ovarian cancer, five-dose",15.6 µM
same,inhibition at 10 µM,[19],> 100%
same,GI50,"[19]; RXF 393, Renal cancer, five-dose",2.22 µM
same,inhibition at 10 µM,[20],> 100%
same,GI50,"[20]; SF-295, CNS cancer, five-dose",4.18 µM
same,inhibition at 10 µM,[21],> 100%
same,GI50,"[21]; SK-MEL-28, Melanoma, five-dose",1.83 µM
same,inhibition at 10 µM,[22],> 100%
same,GI50,"[22]; SK-MEL-2, Melanoma, five-dose",11 µM
same,inhibition at 10 µM,[23],> 100%
same,GI50,"[23]; SK-MEL-5, Melanoma, five-dose",2.83 µM
same,inhibition at 10 µM,[24],> 100%
same,GI50,"[24]; SR, Leukemia, five-dose",3.76 µM
same,inhibition at 10 µM,[25],62.6%
same,GI50,"[25]; TK-10, Renal cancer, five-dose",28.8 µM
same,inhibition at 10 µM,[26],> 100%
same,GI50,"[26]; UACC-257, Melanoma, five-dose",4.67 µM
